# Test results as given in ChEMBL document CHEMBL1201862, “PubChem BioAssay data set” (2004).
# Activity calls are given as the source filed them. No stated cut-off is given here; in the data, actives have a measured IC50 and inactives only a lower limit.
# What was measured:
# Format in all cases: functional
# [1] = biological target: T1, Sentrin-specific protease 6 (Homo sapiens, UniProt Q9GZR1); test: SAR Analysis of small molecule inhibitors of Sentrin-specific protease 6 (SENP6) using a Luminescent assay. [Related pubchem assays (depositor defined):AID2582, AID2599]
# T1 sequence (Q9GZR1 whole entry): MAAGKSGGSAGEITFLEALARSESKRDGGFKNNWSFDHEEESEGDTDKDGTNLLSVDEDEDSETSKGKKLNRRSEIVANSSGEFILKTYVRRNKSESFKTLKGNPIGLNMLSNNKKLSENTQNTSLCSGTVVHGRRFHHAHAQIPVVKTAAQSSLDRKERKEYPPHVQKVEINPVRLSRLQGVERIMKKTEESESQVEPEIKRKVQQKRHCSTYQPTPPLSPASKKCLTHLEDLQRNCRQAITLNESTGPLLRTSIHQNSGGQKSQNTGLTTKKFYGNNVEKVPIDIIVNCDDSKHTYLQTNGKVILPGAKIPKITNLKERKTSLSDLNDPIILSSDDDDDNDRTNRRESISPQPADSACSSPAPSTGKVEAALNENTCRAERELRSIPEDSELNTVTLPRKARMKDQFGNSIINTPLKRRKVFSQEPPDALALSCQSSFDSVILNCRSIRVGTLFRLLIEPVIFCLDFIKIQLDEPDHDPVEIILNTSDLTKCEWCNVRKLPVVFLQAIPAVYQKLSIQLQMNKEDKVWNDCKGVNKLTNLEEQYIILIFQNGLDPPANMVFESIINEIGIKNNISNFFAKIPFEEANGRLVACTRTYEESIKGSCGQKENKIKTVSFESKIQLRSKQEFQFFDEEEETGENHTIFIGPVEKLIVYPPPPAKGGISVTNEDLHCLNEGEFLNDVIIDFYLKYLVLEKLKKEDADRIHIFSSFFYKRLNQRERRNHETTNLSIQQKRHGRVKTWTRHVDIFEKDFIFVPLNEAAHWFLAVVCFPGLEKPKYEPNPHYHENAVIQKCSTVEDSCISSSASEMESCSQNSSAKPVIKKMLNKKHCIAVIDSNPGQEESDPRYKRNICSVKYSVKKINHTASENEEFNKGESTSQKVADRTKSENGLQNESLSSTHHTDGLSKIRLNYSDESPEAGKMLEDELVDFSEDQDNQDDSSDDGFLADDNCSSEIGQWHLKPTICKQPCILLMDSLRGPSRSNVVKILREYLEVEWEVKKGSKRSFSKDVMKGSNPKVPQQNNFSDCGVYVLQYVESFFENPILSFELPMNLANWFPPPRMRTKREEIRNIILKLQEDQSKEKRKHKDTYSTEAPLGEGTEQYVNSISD
# [2] = biological target: T2, Sentrin-specific protease 8 (Homo sapiens, UniProt Q96LD8);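 further: luminescence read-out of SENP8 inhibition, dose-response confirmation following an ultra-high-throughput screen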
# T2 sequence (Q96LD8 whole entry): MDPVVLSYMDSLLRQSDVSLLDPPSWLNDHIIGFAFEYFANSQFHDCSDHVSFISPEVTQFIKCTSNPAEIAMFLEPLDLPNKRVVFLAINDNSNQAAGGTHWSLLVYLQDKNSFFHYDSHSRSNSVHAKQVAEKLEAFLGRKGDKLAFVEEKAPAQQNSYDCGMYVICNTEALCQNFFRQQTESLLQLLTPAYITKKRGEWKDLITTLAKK
# [3] = biological target: T1, Sentrin-specific protease 6
smiles,measurement,setting,value
O=C(NN=c1c(=O)c2ccccc2c1=O)c1ccccc1,IC50,[1],5.31 µM (active)
same,IC50,[2],> 100 µM (inactive)
same,IC50,[3],3.47 µM (active)
